Results taken from US7718651B2, “Inhibitors of FtsZ and uses thereof” (priority 2002, dated 2010).

Tested on: M. tuberculosis H37Rv
Assay: microbe, parasite or virus in culture
Format: cell-based
Conditions: M. tuberculosis H37Rv, screen concentration 12.5 g/ml [sic], Table 8

Compared with `CCOC(=O)Nc1cc(Nc2ccccc2)c([N+](=O)[O-])c(N)n1` [Compound A59], `CCOC(=O)Nc1cc(NCc2ccccc2)c([N+](=O)[O-])c(N)n1` [Compound A66] is lower in “% Inh” value: 88% for the first, 83% for the second.

Going from `CCOC(=O)Nc1cc2c(c(N)n1)N=C(c1ccccc1)C(CC)N2` (centres unmarked) [Compound A306] to `CCOC(=O)Nc1cc2c(c(N)n1)N=C(c1ccccc1)CN2` [Compound A65], the “% Inh” value rises from −3% to 83%.

Compared with `CCOC(=O)Nc1cc(N)c2nc(CN(C)c3ccccc3)cnc2n1` [Compound A273], `CCOC(=O)Nc1cc(N)c2nc(-c3ccccc3)cnc2n1` [Compound A148] is higher in “% Inh” value: 0% for the first, 14% for the second.

Going from `CCOC(=O)Nc1cc(NCC(O)CN(C)c2ccccc2)c2nc(O)[nH]c2n1` (centres unmarked) [Compound A63] to `CCOC(=O)Nc1cc(N)c([N+](=O)[O-])c(NCC(O)CN(C)c2ccccc2)n1` (centres unmarked) [Compound A274], the “% Inh” value falls from 86% to 0%.

`CCOC(=O)Nc1ccc(/N=C/c2ccccc2)cn1` [Compound A223] and `CCOC(=O)Nc1cc(N(C)/N=C/c2ccccc2)c([N+](=O)[O-])c(N)n1` [Compound A204] are the same in “% Inh” value: 0% for the first, 0% for the second.

Going from `CCOC(=O)Nc1cc(NC(C)CCCN(CC)CC)c2ncc(-c3ccc(C(F)(F)F)cc3)nc2n1` (centres unmarked) [Compound A102] to `CCOC(=O)Nc1cc(NCCc2ccc(S(=O)(=O)N(CC)CC)cc2)c2ncc(-c3ccc(Cl)cc3)nc2n1` [Compound A259], the “% Inh” value falls from 54% to 0%.

Compared with `CCOC(=O)Nc1cc(NC(c2ccccc2)c2ccccc2)c2ncc(O)nc2n1` [Compound A61], `CCOC(=O)Nc1cc(NC(c2ccccc2)c2ccccc2)c2[nH]c(=O)cnc2n1` [Compound A70] is lower in “% Inh” value: 87% for the first, 76% for the second.

Compared with `CCOC(=O)Nc1cc2c(c(N)n1)N=C(CN(C)c1ccccc1)CN2` [Compound A45], `CCOC(=O)Nc1cc2c(c(N)n1)N=C(CN(C)c1ccc(OC)cc1)CN2` [Compound A138] is lower in “% Inh” value: 93% for the first, 20% for the second.

Going from `CCOC(=O)Nc1cc(N)c2ncc(-c3cc(OC)c(OC)c(OC)c3)nc2n1` [Compound A147] to `CCOC(=O)Nc1cc(N)c2ncc(-c3ccc(Cl)cc3)nc2n1` [Compound A262], the “% Inh” value falls from 15% to 0%.

First: CCOC(=O)Nc1cc(NCCc2ccccc2)c2nc[nH]c2n1 [Compound A73]
Second: CCOC(=O)Nc1cc(NCCc2ccccc2)c([N+](=O)[O-])c(N)n1 [Compound A82]
The “% Inh” value of the first is higher: 74% for the first, 68% for the second.

`CCOC(=O)Nc1cc2[nH]c(-c3ccccc3)nc2c(Cl)n1` [Compound A219] and `CCOC(=O)Nc1cc(Cl)c2nc(-c3ccccc3)[nH]c2n1` [Compound A234] are the same in “% Inh” value: 0% for the first, 0% for the second.

First: CCOC(=O)Nc1cc(N)c([N+](=O)[O-])c(Cl)n1 [Compound A76]
Second: C=CCNc1cc(NC(=O)OCC)nc(N)c1[N+](=O)[O-] [Compound A279]
The “% Inh” value of the first is higher: 72% for the first, 0% for the second.

`CCOC(=O)Nc1cc2[nH]c(-c3cc(OC)c(OC)cc3OC)nc2c(N(CCc2ccccc2)Cc2ccccc2)n1` [Compound A29] and `CCOC(=O)Nc1cc2[nH]c(-c3cc(OC)c(OC)c(OC)c3)nc2c(N(CCc2ccccc2)Cc2ccccc2)n1` [Compound A28] are the same in “% Inh” value: 97% for the first, 97% for the second.

Going from `CCOC(=O)Nc1cc(NC(C)C(=O)COc2ccccc2)c([N+](=O)[O-])c(N)n1` (centres unmarked) [Compound A133] to `CCOC(=O)Nc1cc(NC(CC)C(O)c2ccccc2)c([N+](=O)[O-])c(N)n1` (centres unmarked) [Compound A301], the “% Inh” value falls from 23% to −1%.

Compared with `CCOC(=O)Nc1cc(NCCC(O)c2ccccc2)c([N+](=O)[O-])c(N)n1` (centres unmarked) [Compound A115], `CCOC(=O)Nc1cc(NCC(=O)CN(C)c2ccccc2)c([N+](=O)[O-])c(N)n1` [Compound A143] is lower in “% Inh” value: 41% for the first, 17% for the second.

Going from `CCOC(=O)N(Cc1ccccc1)c1cc(Cl)c([N+](=O)[O-])c(N)n1` [Compound A293] to `CCOC(=O)Nc1cc(N)c([N+](=O)[O-])c(N[C@H](C)C(=O)c2ccccc2)n1` [Compound A112], the “% Inh” value rises from 0% to 42%.

Going from `CCOC(=O)Nc1cc(NC(C)C(=O)c2ccc(O)cc2)c([N+](=O)[O-])c(N)n1` (centres unmarked) [Compound A183] to `CCOC(=O)Nc1cc(N[C@@H](C)[C@@H](O)c2ccc(O)cc2)c([N+](=O)[O-])c(N)n1` [Compound A178], the “% Inh” value rises from 2% to 4%.

Going from `CCOC(=O)Nc1nc(NC(=O)OCC)c2c(c1N)NC(C)C(c1ccccc1)=N2` (centres unmarked) [Compound A194] to `CCOC(=O)Nc1nc(NC(=O)OCC)c([N+](=O)[O-])c(NC(C)/C(=N\O)c2ccccc2)c1[N+](=O)[O-]` (centres unmarked) [Compound A150], the “% Inh” value rises from 0% to 14%.

Compared with `CCOC(=O)Nc1cc2[nH]c(-c3ccccc3)nc2c(N(C)Cc2ccccc2)n1` [Compound A3], `CCOC(=O)Nc1cc2[nH]c(-c3ccc(C)cc3)nc2c(N(CCc2ccccc2)Cc2ccccc2)n1` [Compound A145] is lower in “% Inh” value: 99% for the first, 16% for the second.

Compared with `CCOC(=O)Nc1cc2c(c(N)n1)N=C(c1ccc(Cl)cc1)CO2` [Compound A226], `CCOC(=O)Nc1cc2c(c(N)n1)N=C(c1ccc(F)cc1)CN2` [Compound A60] is higher in “% Inh” value: 0% for the first, 87% for the second.

First: CCOC(=O)Nc1cc2nc(C)cnc2c(NC(=O)OCC)n1 [Compound A277]
Second: CCOC(=O)Nc1cc2ncc(-c3ccccc3)nc2c(NC(C)=O)n1 [Compound A159]
The “% Inh” value of the first is lower: 0% for the first, 10% for the second.

`CCOC(=O)Nc1cc2[nH]c(-c3ccc(CC)cc3)nc2c(N(CCc2ccccc2)Cc2ccccc2)n1` [Compound A17] and `CCOC(=O)Nc1cc2[nH]c(-c3ccccc3F)nc2c(N(CCc2ccccc2)Cc2ccccc2)n1` [Compound A20] are the same in “% Inh” value: 98% for the first, 98% for the second.

Going from `CCOC(=O)Nc1cc(N)c([N+](=O)[O-])c(NC(c2ccccc2)c2ccccc2)n1` [Compound A142] to `CCOC(=O)Nc1cc(NC(c2ccccc2)c2ccccc2)c([N+](=O)[O-])c(NC/C(=N/O)c2ccc(Cl)cc2)n1` [Compound A130], the “% Inh” value rises from 18% to 28%.

First: CCOC(=O)Nc1cc(OCC)c2nc(-c3ccccc3)c(-c3ccccc3)nc2n1 [Compound A38]
Second: CCOC(=O)Nc1cc2nc(-c3ccccc3)c(-c3ccccc3)nc2c(OCC)n1 [Compound A72]
The “% Inh” value of the first is higher: 95% for the first, 75% for the second.

Compared with `CCOC(=O)Nc1cc(NC/C(=N/O)c2ccc(OC)cc2)c([N+](=O)[O-])c(N)n1` [Compound A182], `CCOC(=O)Nc1cc(NCC(=O)c2ccc(OC)cc2)c([N+](=O)[O-])c(N)n1` [Compound A237] is lower in “% Inh” value: 2% for the first, 0% for the second.

`CCOC(=O)Nc1cc(NCC(=O)c2ccc(-c3ccccc3)cc2)c([N+](=O)[O-])c(N)n1` [Compound A300] and `CCOC(=O)Nc1cc(NCC(=O)c2ccc(Cl)cc2)c([N+](=O)[O-])c(N)n1` [Compound A240] are the same in “% Inh” value: 0% for the first, 0% for the second.

Compared with `CCOC(=O)Nc1cc2c(c(N)n1)N=C(c1ccc(OC)cc1)CS2` [Compound A158], `CCOC(=O)Nc1cc2[nH]c(-c3ccc(O)cc3)nc2c(N)n1` [Compound A152] is higher in “% Inh” value: 10% for the first, 13% for the second.

Going from `CCOC(=O)Nc1cc(NC/C(=N/O)c2ccc(Cl)cc2Cl)c([N+](=O)[O-])c(N)n1` [Compound A58] to `CCOC(=O)Nc1cc(NC/C(=N/O)c2cccc(OC)c2)c([N+](=O)[O-])c(N)n1` [Compound A231], the “% Inh” value falls from 89% to 0%.

`CCOC(=O)Nc1cc2c(c(N)n1)N=C(CN(C)c1ccc(C(=O)OC)cc1)CN2` [Compound A288] and `CCOC(=O)Nc1cc(NCC(=O)c2ccc([N+](=O)[O-])cc2)c([N+](=O)[O-])c(N)n1` [Compound A220] are the same in “% Inh” value: 0% for the first, 0% for the second.

`CCOC(=O)Nc1cc(NC(c2ccccc2)c2ccccc2)c2ncc(-c3ccc(Cl)cc3)nc2n1` [Compound A261] and `CCOC(=O)Nc1cc(Nc2ccc(Cl)cc2)c2ncc(-c3ccc(Cl)cc3)nc2n1` [Compound A258] are the same in “% Inh” value: 0% for the first, 0% for the second.

Going from `CCOC(=O)Nc1cc2[nH]c(-c3ccc(C)cc3)nc2c(N(CC)CC)n1` [Compound A13] to `CCOC(=O)Nc1cc2[nH]c(=O)c(-c3ccccc3)nc2c(N)n1` [Compound A196], the “% Inh” value falls from 98% to 0%.

Going from `CCCCC(Nc1cc(NC(=O)OCC)nc(N)c1[N+](=O)[O-])C(C)=O` (centres unmarked) [Compound A67] to `CCCCC(Nc1cc(NC(=O)OCC)nc(N)c1N)C(C)O` (centres unmarked) [Compound A174], the “% Inh” value falls from 81% to 5%.

Compared with `CCOC(=O)Nc1cc2c([nH]c(=S)n2/N=C/c2ccc3c(c2)OCO3)c(N)n1` [Compound A241], `CCOC(=O)Nc1cc2c(nc(SCc3ccccc3)n2N)c(N)n1` [Compound A120] is higher in “% Inh” value: 0% for the first, 34% for the second.

Compared with `CCOC(=O)Nc1cc2c(nc(-c3ccccc3)n2C(c2ccccc2)c2ccccc2)c(Cl)n1` [Compound A89], `CCOC(=O)Nc1cc2oc(-c3ccc(Cl)cc3)nc2c(N(CCc2ccccc2)Cc2ccccc2)n1` [Compound A137] is lower in “% Inh” value: 63% for the first, 21% for the second.

First: CCOC(=O)Nc1cc(N)c(N)c(N)n1 [Compound A156]
Second: CCOC(=O)Nc1cc(N)c2c(n1)NCC(C)=N2 [Compound A283]
The “% Inh” value of the first is higher: 10% for the first, 0% for the second.

`CCOC(=O)Nc1cc(NC/C(CNc2ccc(C(=O)OCC)cc2)=N/O)c([N+](=O)[O-])c(N)n1` [Compound A291] and `CCOC(=O)Nc1cc(NCc2ccc(S(N)(=O)=O)cc2)c([N+](=O)[O-])c(N)n1` [Compound A244] are the same in “% Inh” value: 0% for the first, 0% for the second.

`CCOC(=O)Nc1cc2[nH]cnc2c(Cl)n1` [Compound A203] and `CCOC(=O)Nc1cc(NCCc2ccc(S(=O)(=O)N(CC)CC)cc2)c2nccnc2n1` [Compound A252] are the same in “% Inh” value: 0% for the first, 0% for the second.

Same assay, conditions: Mycobacterium tuberculosis; M. tuberculosis H37Rv; at 12.5% μg/ml (so in the source); read-out: Primary Screen PI (% inhibition of growth)

First: CCCCNC(=O)Oc1ccc(C2=Nc3c(cc(NC(=O)OCC)nc3N)N[C@H]2C)cc1 [SRI-20158, [5-Amino-3-(4-butylcarbamoyloxy-phenyl)-2-methyl-1,2-dihydro-pyrido[3,4-b]pyrazin-7-yl]-carbamic acid ethyl ester]
Second: CCOC(=O)Nc1cc2nc(-c3ccccc3)c(-c3ccccc3)nc2c(N)n1 [Compound 3302-89F, (5-Amino-2,3-diphenyl-pyrido[3,4-b]pyrazin-7-yl)-carbamic acid ethyl ester]
The inhibition of growth at 12.5 µg/mL of the first is lower: 10% for the first, 92% for the second.

Same assay, conditions: in words

For `CCOC(=O)Nc1cc2nc(-c3ccccc3)c(-c3ccccc3)nc2c(N)n1` [Compound 3302-89F, (5-Amino-2,3-diphenyl-pyrido[3,4-b]pyrazin-7-yl)-carbamic acid ethyl ester], the “activity against M. tuberculosis H37Rv in the primary screen” value was “demonstrated activity”.
